Source: patent US20220110902A1, “Methods of treating amyloid-beta peptide diseases” (Ecole Polytechnique Federale de Lausanne, priority 2016, published 2022)

System: GMC101 worms
Assay: Transcript analysis of the MSR and other stress pathways in GMC101 worms
Format: in vivo, C. elegans
Conditions: for UPR^er and HSR gene transcripts: AZD 0.3 μM; for MSR transcripts (UPR^mt, mitophagy and respiration genes): AZD 300 nM
Protocol: C. elegans: A total of ˜3000 worms per condition, divided in 3 biological replicates, was recovered in M9 buffer from NGM plates and lysed in the TriPure RNA reagent. Each experiment was repeated twice. Total RNA was transcribed to cDNA using QuantiTect Reverse Transcription Kit (Qiagen). Expression of selected genes was analyzed using the LightCycler480 system (Roche) and LightCycler® 480 SYBR Green I Master reagent (Roche). For C. elegans, 2 housekeeping genes were used to normalize the expression data, namely actin (act-1) and peroxisomal membrane protein 3 (pmp-3).
atfs-1p::atfs-1 expression vector was created by amplifying 1488 bp sequence upstream from the transcription start site of atfs-1 coding region by using worm genomic DNA for the promoter region. The PCR product was digested with PciI and AgeI and ligated into the pPD30.38 expression vector containing gfp coding sequence cloned between inserted AgeI and NotI restriction sites. The atfs-1 coding sequence (CDS) was instead amplified using C. elegans cDNA, and the PCR product was inserted into pPD30.38 downstream of the promoter region, between AgeI and NheI restriction sites. The correctness of the atfs-1p::atfs-1 construct was assessed by sequencing with the indicated pPD30.38 and atfs-1 seq. primers. Two independent GMC101 lines (AUW9 and AUW10), and one CL2122 strain (AUW11) carrying atfs-1p::atfs-1 transgene as extrachromosomal array were analyzed in the study. Injection marker myo-2p::gfp was cloned by amplifying 1179 bp sequence upstream from the transcription start site of myo-2 coding region by using C. elegans genomic DNA. The PCR product was digested with PciI and AgeI and ligated into the pPD30.38 expression vector containing atfs-1::gfp to replace atfs-1 promoter sequence between PciI and AgeI restriction sites. All transgenic strains were created by using microinjection. For the generation of the GMC101 lines AUW12 and AUW13, GMC101 males were generated after exposure of L4 worms to 30° C. for 3 h, and let mate with L4 from clk-1 or nuo-6 mutant strains. The derived progeny was selected for homozygosis of the GMC101 intestinal GFP marker for few generations, and the homozygosis of the clk-1 or nuo-6 mutant alleles verified by amplifying and sequencing a 500 bp region of the worms genomic DNA encompassing the desired mutation. Bacterial feeding RNAi experiments were carried out as described. Clones used were atfs-1 (ZC376.7), ubl-5 (F46F11.4), mrps-5 (E02A10.1), dct-1 (C14F5.1), daf-16 (R13H8.1), sir-2.1 (R11A8.4), xbp-1 (R74.3) and hsf-1 (Y53C10A.12). Clones were purchased from GeneService and verified by sequencing. The novel atfs-1 RNAi construct (atfs-1 #2) used in this study was generated by amplifying 1400 bp of the atfs-1 genomic DNA sequence, starting from the last exon of atfs-1. Gateway cloning (Thermo Scientfic) was used to insert the PCR product into the gateway vector pL4440gtwy (Addgene #11344), and verified by sequencing. atfs-1 knockdown was verified by qPCR for all the atfs-1 RNAi constructs used herein. For phenotypic studies (see below), worms at the L4 larval stage were allowed to reach adulthood and lay eggs on the treatment plates. The deriving F1 worms were shifted from 20° C. to 25° C. at the L4 stage to induce amyloid accumulation and paralysis, and phenotypes assessed over time as indicated. For double RNAi experiments, we used a combination of atfs-1 with mrps-5 RNAi constructs as indicated in the text, with 80% amount of atfs-1 and 20% mrps-5 RNAi. For mRNA analysis, synchronized L1 worms were exposed to the treatment plates, and shifted from 20° C. to 25° C. when reaching the L4 stage. After 24 hours incubation at 25° C., corresponding to day 1 of adulthood, they were harvested in M9 for analysis.
Doxycycline was obtained from Sigma-Aldrich and dissolved in water. For experiments, a final concentration of 15 μg/mL was used. Olaparib (AZD2281) was dissolved in DMSO to experimental concentrations of 300 nM. […]

[1] = GMC101, day 1 of adulthood, dox 15 μg/mL, NR 1 mM

SMILES	oxidative stress and mitochondrial stress response genes (sod-2, sod-4, atfs-1, skn-1) (GMC101, myriocin 5 uM and 10 uM)	UPR^mt and mitophagy genes (hsp-6, hsp-60, dct-1, pdr-1) (GMC101, myriocin treatment)	daf-16 and daf-16 target gene transcripts [1]	UPR^er and HSR gene transcripts [1]	MSR transcripts (UPR^mt, mitophagy and respiration genes) [1]
CCCCCCC(=O)CCCCCC/C=C/C[C@@H](O)[C@H](O)[C@@](N)(CO)C(=O)O [Myriocin, (E,2S,3R,4R)-2-amino-3,4-dihydroxy-2-(hydroxymethyl)-14-oxoicos-6-enoic acid]	induction	upregulation			
NC(=O)c1ccc[n+]([C@@H]2O[C@H](CO)[C@@H](O)[C@H]2O)c1 [NR, Nicotinamide Riboside triflate]			did not affect	only a minimal impact	induced the MSR
O=C(c1cc(Cc2n[nH]c(=O)c3ccccc23)ccc1F)N1CCN(C(=O)C2CC2)CC1 [AZD, Olaparib, reference compound]				only a minimal impact	induced the MSR
